# According to patent publication US20220362577A1, “METHODS FOR GUIDING DIRECT DELIVERY OF DRUGS AND/OR ENERGY TO LESIONS USING COMPUTATIONAL MODELING” (University of Vermont and State Agricultural College, priority 2019, published 2022):
# What was measured:
# [1] = Cisplatin blood concentration versus time after EBUS-TBNI into a patient's lung tumor, fitted with Eq. 14; type: in vivo, human; details: fit of Eq. 14 to blood concentrations after five 8-mg intratumoral injections
# Procedure: Combining Eqs. 2 and 12 gives:
# The fitting was achieved by optimizing the values of the two free parameters (kf+ki) and Vf using a gradient-based algorithm to minimize the cost function: […]
# Ultrasound guidance was used to attempt to distribute the 5 injections evenly throughout the tumor over an interval of 18 min.
# [2] = tested on: head, neck and gastric carcinomas; details: assumed the same for lung carcinomas; cited from earlier work
# [3] = tested on: mitochondrial respiration; details: cisplatin-treated cells; cited from earlier work
structure (smiles),measurement,setting,value
N.N.[Cl][Pt][Cl] [cisplatin],"ki+kf, sum of rate constants out of the extracellular space",[1],0.000251 s⁻¹
same,"ki, rate constant of flow into the intracellular space",[2],0.000105 s⁻¹
same,concentration above which stepwise decrements in mitochondrial respiration were seen,[3],above 5.0 uM
